Measured values taken from ChEMBL document CHEMBL1146978 (Bioorg Med Chem Lett, 2006).

What was measured:
[1] = target: Voltage-dependent calcium channel alpha2delta subunit (Sus scrofa, UniProt O77773); assay: Displacement of [3H]gabapentin from alpha-2delta calcium channel in pig brain membrane; format: cell membranes
[2] = tested on: Mus musculus; assay: Anticonvulsant activity against DBA/2 mouse at 30 mg/kg, po 2 hrs post dose; format: functional
[3] = Inhibition of [3H]leucine uptake at System L in CHO cells; format: cell-based
[4] = tested on: Rattus norvegicus; assay: Anxiolytic effect in rat at 30 mg/kg, po by Vogel water lick conflict assay assessed by ability to reverse shock-induced suppression of drinking; format: functional

Voltage-dependent calcium channel alpha2delta subunit, sequence (O77773 whole entry): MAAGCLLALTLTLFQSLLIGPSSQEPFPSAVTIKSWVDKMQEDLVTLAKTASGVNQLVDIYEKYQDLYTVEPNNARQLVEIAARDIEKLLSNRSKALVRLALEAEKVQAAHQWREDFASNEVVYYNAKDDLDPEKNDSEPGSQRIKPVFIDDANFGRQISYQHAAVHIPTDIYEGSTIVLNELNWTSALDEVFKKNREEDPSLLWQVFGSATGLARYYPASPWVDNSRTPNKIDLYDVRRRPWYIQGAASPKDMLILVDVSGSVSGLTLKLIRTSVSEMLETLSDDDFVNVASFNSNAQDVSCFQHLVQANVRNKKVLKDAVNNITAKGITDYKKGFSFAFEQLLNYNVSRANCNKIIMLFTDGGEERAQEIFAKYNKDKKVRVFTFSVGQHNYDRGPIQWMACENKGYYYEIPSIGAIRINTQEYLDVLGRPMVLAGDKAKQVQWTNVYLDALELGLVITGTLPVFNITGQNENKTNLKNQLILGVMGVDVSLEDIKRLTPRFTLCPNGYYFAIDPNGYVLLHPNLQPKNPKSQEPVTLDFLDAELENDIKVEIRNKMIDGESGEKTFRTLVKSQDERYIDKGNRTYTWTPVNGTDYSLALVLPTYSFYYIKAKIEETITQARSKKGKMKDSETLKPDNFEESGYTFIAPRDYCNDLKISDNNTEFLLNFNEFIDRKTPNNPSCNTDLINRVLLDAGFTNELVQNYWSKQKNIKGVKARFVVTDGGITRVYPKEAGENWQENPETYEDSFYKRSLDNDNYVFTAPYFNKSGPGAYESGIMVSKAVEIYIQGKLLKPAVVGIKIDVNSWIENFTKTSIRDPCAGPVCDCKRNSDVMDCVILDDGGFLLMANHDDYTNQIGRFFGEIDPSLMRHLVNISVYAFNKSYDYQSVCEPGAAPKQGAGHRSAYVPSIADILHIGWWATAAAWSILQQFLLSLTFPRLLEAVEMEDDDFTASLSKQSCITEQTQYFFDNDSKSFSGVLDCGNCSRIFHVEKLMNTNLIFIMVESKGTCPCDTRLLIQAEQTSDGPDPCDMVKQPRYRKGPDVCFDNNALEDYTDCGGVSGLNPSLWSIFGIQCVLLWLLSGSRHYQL

Compound	IC50 [1] [µM]	Activity [2] [%]	IC50 [3] [µM]	Activity [4] [%]
NCC(CC(=O)O)CC1CCOC1 (stereo not given)	> 10000	0	–	–
NCC(CC(=O)O)Cc1ccccc1 (stereo not given)	> 10000	0	–	–
NC[C@H](CC(=O)O)Cc1ccco1	0.178	40	10000	–
NCC(CC(=O)O)Cc1cccs1 (stereo not given)	2.14	40	2940	10.3
NC[C@@H](CC(=O)O)Cc1ccco1	1.46	0	10000	0.28
NCC(CC(=O)O)Cc1ccoc1 (stereo not given)	0.518	0	1420	-17
NCC(CC(=O)O)Cc1ccsc1 (stereo not given)	0.832	60	7030	-3
NCC(CC(=O)O)Cc1ccco1 (stereo not given)	0.421	20	10000	5.3
CC(C)C[C@H](CN)CC(=O)O [PREGABALIN]	–	100	284	100
